Experimental findings from patent US20230391845A1, “GLP-1, GIP AND GLUCAGON RECEPTOR TRIPLE AGONISTS” (priority 2020, published 2023) are described below.

Data set [1] can be described thus: Pharmacokinetic study in minipigs, i.v. administration. Also on record: species or system Göttingen minipigs. As to conditions: female, Göttingen, minipig, in vivo, iv. The essentials: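 Terminal half-life, reported as harmonic mean, came from non-compartmental fits of plasma levels measured by antibody assay or LCMS over up to 14 days. Dosing was i.v., typically 1.5-2 nmol/kg, through implanted caval catheters in fasted female Göttingen minipigs of 16-35 kg.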

Data set [2] deals with T1, human GLP-1 receptor (Homo sapiens, UniProt P43220).
T1 construct: expressed in transfected cells; host or cells: BHK cells (parent line BHKTS13) containing CRE luciferase
The experiment in a line: In vitro functional potency (CRE luciferase; whole cells), human GLP-1R. As to conditions: BHK CRE luc2P hGLP-1R whole cells; Table 2; read-out: hGLP-1R CRE Luc EC50. The format is cell-based.

Data set [3] has as its target T2, human GIP receptor (Homo sapiens, UniProt P48546).
T2 construct: expressed in transfected cells; host or cells: BHK cells (parent line BHKTS13) containing CRE luciferase
T2 sequence (P48546 22-466): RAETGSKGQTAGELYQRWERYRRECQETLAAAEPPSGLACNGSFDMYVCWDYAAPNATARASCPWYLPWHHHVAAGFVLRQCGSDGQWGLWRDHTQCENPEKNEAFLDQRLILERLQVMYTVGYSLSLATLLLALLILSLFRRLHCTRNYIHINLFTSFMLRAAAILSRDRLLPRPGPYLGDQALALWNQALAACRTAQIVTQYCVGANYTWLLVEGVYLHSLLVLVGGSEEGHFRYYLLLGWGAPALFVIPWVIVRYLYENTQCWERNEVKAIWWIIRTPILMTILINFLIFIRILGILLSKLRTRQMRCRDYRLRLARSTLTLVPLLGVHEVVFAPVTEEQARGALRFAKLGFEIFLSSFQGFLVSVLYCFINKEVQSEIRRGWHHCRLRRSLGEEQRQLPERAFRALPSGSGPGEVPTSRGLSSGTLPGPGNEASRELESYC
The experiment in a line: In vitro functional potency (CRE luciferase; whole cells), human GIPR. The data set is classed as cell-based. The following applies: BHK CRE luc2P hGIPR whole cells; Table 2; read-out: hGIPR CRE Luc EC50.
Description: The purpose of this example is to test the functional activity, or potency, of the compounds in vitro at the human and mouse GLP-1, GIP, and Gcg receptors. The in vitro functional potency is the measure of target receptor activation in a whole cell assay.
In vitro functional potency was determined by measuring the response of the target receptor in a reporter gene assay in individual cell lines. The assay was performed in stably transfected BHK cell lines that expresses one of the following G-protein coupled receptors: human GLP-1 receptor, human GIP receptor, human Gcg receptor, mouse GLP-1 receptor, mouse GIP receptor, or mouse Gcg receptor; and where each cell line contains the DNA for the cAMP response element (CRE) coupled to a promoter and the gene for firefly luciferase (CRE luciferase). When the respective receptor is activated, it results in the production of cAMP, which in turn results in expression of the luciferase protein. When assay incubation is completed, luciferase substrate (luciferin) is added resulting in the enzymatic conversion of luciferin to oxyluciferin and producing bioluminescence. The luminescence is measured as the readout for the assay.
The cells lines used in these assays were BHK cells with BHKTS13 as a parent cell line. The cell lines were derived from a clone containing the CRE luciferase element and were established by further transfection with the respective receptor to obtain the relevant cell line.
The cells were cultured at 37° C. with 5% CO2 in Cell Culture Medium. They were aliquoted and stored in liquid nitrogen. The cells were kept in continuous culture and were seeded out the day before each assay.
GLP-1R and GcgR Cell Culture Medium consisted of DMEM medium with 10% FBS, 500 µg/mL G418, and 300 µg/mL hygromycin. GIPR Cell Culture Medium consisted of DMEM medium with 10% FBS, 400 µg/mL G418, and 300 µg/mL hygromycin. Assay Buffer consisted of DMEM w/o phenol red, 10 mM Hepes, 1× Glutamax, 1% ovalbumin, and 0.1% Pluronic F-68.
• 1) Cells were plated at 5000 cells/well and incubated overnight in the assay plate. • 2) Cells were washed once in DPBS. • 3) Stocks of the test compounds and reference compounds in concentrations ranging from 100-300 pM were diluted 1:150 in Assay Buffer.
The data from the microtiter plate reader was first regressed in an Excel in order to calculate the x-axis, log scale concentrations based on the individual test compound's stock concentration and the dilutions of the assay. […] The software performs a non-linear regression (log(agonist) vs response). A minimum of two replicates was measured for each sample. The reported values are averages of the replicates.

The target of data set [4] is human glucagon receptor (human, UniProt P47871 26-477). Description: cell-based or functional assay.
Data set [5] has as its target T3, human glucose-dependent insulinotropic polypeptide receptor (human, UniProt P48546 22-466).
T3 sequence (looked up): T2 sequence (P48546 22-466)
Description: cell-based or functional assay.

In data set [6] the target is human glucagon-like peptide 1 receptor (human, UniProt P43220 24-463). Description: cell-based or functional assay.

*1 amine or outer side, *2 acyl side, *3 side chain or, on linkers, in order; H or OH if unused. Where a SMILES comes first, the peptide text is derived from it. Where no end group is shown, it is not given here. Side-chain parts run from the residue outwards. [ ]: non-standard residue; d: D form. The star is where a group is joined. C20 diacid = O=C(O)CCCCCCCCCCCCCCCCCCC(=O)*; γGlu = O=C(O)[C@H](CCC(=O)[*:2])N[*:1]; εLys = N[C@@H](CCCCN[*:1])C(=O)[*:2]; AEEA = NCCOCCOCC(=O)O; Aib = CC(C)(N)C(=O)O

T1 sequence (P43220 24-463): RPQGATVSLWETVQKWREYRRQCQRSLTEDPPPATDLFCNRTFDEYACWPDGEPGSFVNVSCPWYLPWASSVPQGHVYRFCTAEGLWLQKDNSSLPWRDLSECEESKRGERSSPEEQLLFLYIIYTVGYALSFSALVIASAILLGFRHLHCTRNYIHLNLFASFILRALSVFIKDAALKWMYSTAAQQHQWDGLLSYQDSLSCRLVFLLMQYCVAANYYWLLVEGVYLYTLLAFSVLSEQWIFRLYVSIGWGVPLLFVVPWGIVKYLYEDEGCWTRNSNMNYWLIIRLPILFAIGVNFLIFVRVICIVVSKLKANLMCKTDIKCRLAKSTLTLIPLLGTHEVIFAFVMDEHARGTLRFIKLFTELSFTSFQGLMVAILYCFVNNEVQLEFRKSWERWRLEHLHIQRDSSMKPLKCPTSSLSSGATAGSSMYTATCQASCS
Chain of human glucagon receptor (P47871 26-477): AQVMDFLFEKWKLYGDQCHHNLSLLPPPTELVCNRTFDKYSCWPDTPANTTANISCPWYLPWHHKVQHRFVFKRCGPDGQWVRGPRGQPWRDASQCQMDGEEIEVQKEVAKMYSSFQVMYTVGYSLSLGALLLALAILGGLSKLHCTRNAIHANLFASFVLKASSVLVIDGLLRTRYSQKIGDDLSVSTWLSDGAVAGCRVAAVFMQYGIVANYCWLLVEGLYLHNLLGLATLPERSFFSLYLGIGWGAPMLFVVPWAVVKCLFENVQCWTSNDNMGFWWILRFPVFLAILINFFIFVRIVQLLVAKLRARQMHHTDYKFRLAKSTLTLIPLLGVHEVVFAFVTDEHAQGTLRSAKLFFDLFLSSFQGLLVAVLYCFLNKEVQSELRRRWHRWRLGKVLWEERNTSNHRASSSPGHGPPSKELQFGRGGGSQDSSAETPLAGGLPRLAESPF

Broadly, the half-life is how long it takes for the measured level to halve. A lower half-life goes with rapid decline. As a reminder, the EC50 is the midpoint of the concentration-response curve. Turning to `CC[C@H](C)[C@H](NC(=O)[C@H](CO)NC(=O)[C@H](Cc1ccc(O)cc1)NC(=O)[C@H](CC(=O)O)NC(=O)[C@H](CO)NC(=O)[C@@H](NC(=O)[C@H](Cc1ccccc1)NC(=O)[C@@H](NC(=O)CNC(=O)[C@H](Cc1c[nH]cn1)NC(=O)C(C)(C)NC(=O)[C@@H](N)Cc1c[nH]cn1)[C@@H](C)O)[C@@H](C)O)C(=O)N[C@@H](CC(C)C)C(=O)N[C@@H](CC(C)C)C(=O)N[C@@H](CCC(=O)O)C(=O)N[C@@H](CCCCNC(=O)[C@@H](N)CCCCNC(=O)[C@@H](N)CCCCNC(=O)CC[C@H](NC(=O)CCCCCCCCCCCCCCCCCCC(=O)O)C(=O)O)C(=O)N[C@@H](CCCCN)C(=O)N[C@@H](Cc1ccc(O)cc1)C(=O)N[C@@H](C)C(=O)NC(C)(C)C(=O)N[C@@H](CCC(=O)O)C(=O)N[C@@H](Cc1ccccc1)C(=O)N[C@H](C(=O)N[C@@H](CCC(N)=O)C(=O)N[C@@H](Cc1c[nH]c2ccccc12)C(=O)N[C@@H](CC(C)C)C(=O)N[C@@H](CC(C)C)C(=O)N[C@@H](CCC(=O)O)C(=O)NCC(=O)NCC(=O)N1CCC[C@H]1C(=O)N[C@@H](CO)C(=O)N[C@@H](CO)C(=O)NCC(=O)N[C@@H](C)C(=O)N1CCC[C@H]1C(=O)N1CCC[C@H]1C(=O)N1CCC[C@H]1C(=O)N[C@@H](CO)C(N)=O)C(C)C` [Compound No. 41] (H-H[Aib]HGTFTSDYSILLEK([εLys-εLys-γGlu-C20 diacid])KYA[Aib]EFVQWLLEGGPSSGAPPPS-NH2), the half-life in data set [1] was 69 h. Further, the results for the concentration giving a half-maximal response (EC50) in data set [2] and in data set [3] were 4.3 pM and 9.3 pM, respectively.
Take `CC[C@H](C)[C@H](NC(=O)[C@H](CO)NC(=O)[C@H](Cc1ccc(O)cc1)NC(=O)[C@H](CC(=O)O)NC(=O)[C@H](CO)NC(=O)[C@@H](NC(=O)[C@H](Cc1ccccc1)NC(=O)[C@@H](NC(=O)CNC(=O)[C@H](Cc1c[nH]cn1)NC(=O)C(C)(C)NC(=O)[C@@H](N)Cc1c[nH]cn1)[C@@H](C)O)[C@@H](C)O)C(=O)N[C@@H](Cc1ccc(O)cc1)C(=O)N[C@@H](CC(C)C)C(=O)N[C@@H](CCC(=O)O)C(=O)N[C@@H](CCCCNC(=O)[C@@H](N)CCCCNC(=O)[C@@H](N)CCCCNC(=O)CC[C@H](NC(=O)CCCCCCCCCCCCCCCCCCC(=O)O)C(=O)O)C(=O)N[C@@H](CCC(N)=O)C(=O)N[C@@H](Cc1ccc(O)cc1)C(=O)N[C@@H](C)C(=O)NC(C)(C)C(=O)N[C@@H](CCC(=O)O)C(=O)N[C@@H](Cc1ccccc1)C(=O)N[C@H](C(=O)N[C@@H](CCC(N)=O)C(=O)N[C@@H](Cc1c[nH]c2ccccc12)C(=O)N[C@@H](CC(C)C)C(=O)N[C@@H](CC(C)C)C(=O)N[C@@H](CCC(=O)O)C(=O)NCC(=O)NCC(=O)N1CCC[C@H]1C(=O)N[C@@H](CO)C(=O)N[C@@H](CO)C(=O)NCC(=O)N[C@@H](C)C(=O)N1CCC[C@H]1C(=O)N1CCC[C@H]1C(=O)N1CCC[C@H]1C(=O)N[C@@H](CO)C(N)=O)C(C)C` [Compound No. 24] (H-H[Aib]HGTFTSDYSIYLEK([εLys-εLys-γGlu-C20 diacid])QYA[Aib]EFVQWLLEGGPSSGAPPPS-NH2): the half-life in data set [1] is 82 h. The EC50 in data set [3] amounted to 7.7 pM.
With `CC[C@H](C)[C@H](NC(=O)[C@H](CO)NC(=O)[C@H](Cc1ccc(O)cc1)NC(=O)[C@H](CC(=O)O)NC(=O)[C@H](CO)NC(=O)[C@@H](NC(=O)[C@H](Cc1ccccc1)NC(=O)[C@@H](NC(=O)CNC(=O)[C@H](Cc1c[nH]cn1)NC(=O)C(C)(C)NC(=O)[C@@H](N)Cc1c[nH]cn1)[C@@H](C)O)[C@@H](C)O)C(=O)N[C@@H](Cc1ccc(O)cc1)C(=O)N[C@@H](CC(C)C)C(=O)N[C@@H](CCC(=O)O)C(=O)N[C@@H](CCCCNC(=O)[C@@H](N)CCCCNC(=O)[C@@H](N)CCCCNC(=O)CC[C@H](NC(=O)CCCCCCCCCCCCCCCCCCC(=O)O)C(=O)O)C(=O)N[C@@H](CCC(N)=O)C(=O)N[C@@H](C)C(=O)N[C@@H](C)C(=O)NC(C)(C)C(=O)N[C@@H](CCC(=O)O)C(=O)N[C@@H](Cc1ccccc1)C(=O)N[C@H](C(=O)N[C@@H](CCC(N)=O)C(=O)N[C@@H](Cc1c[nH]c2ccccc12)C(=O)N[C@@H](CC(C)C)C(=O)N[C@@H](CC(C)C)C(=O)N[C@@H](CCC(=O)O)C(=O)NCC(=O)NCC(=O)N1CCC[C@H]1C(=O)N[C@@H](CO)C(=O)N[C@@H](CO)C(=O)NCC(=O)N[C@@H](C)C(=O)N1CCC[C@H]1C(=O)N1CCC[C@H]1C(=O)N1CCC[C@H]1C(=O)N[C@@H](CO)C(N)=O)C(C)C` [Compound No. 22] (H-H[Aib]HGTFTSDYSIYLEK([εLys-εLys-γGlu-C20 diacid])QAA[Aib]EFVQWLLEGGPSSGAPPPS-NH2; N-terminus assumed), the EC50 in data set [2] came to 2 pM; in data set [3], 7.1 pM.
The matching figures for `CC[C@H](C)[C@H](NC(=O)[C@H](CO)NC(=O)[C@H](Cc1ccc(O)cc1)NC(=O)[C@H](CC(=O)O)NC(=O)[C@H](CO)NC(=O)[C@@H](NC(=O)[C@H](Cc1ccccc1)NC(=O)[C@@H](NC(=O)CNC(=O)[C@H](Cc1c[nH]cn1)NC(=O)C(C)(C)NC(=O)[C@@H](N)Cc1c[nH]cn1)[C@@H](C)O)[C@@H](C)O)C(=O)N[C@@H](CC(C)C)C(=O)N[C@@H](CC(C)C)C(=O)N[C@@H](CCC(=O)O)C(=O)N[C@@H](CCCCNC(=O)COCCOCCNC(=O)COCCOCCNC(=O)CC[C@H](NC(=O)CCCCCCCCCCCCCCCCCCC(=O)O)C(=O)O)C(=O)N[C@@H](CCC(N)=O)C(=O)N[C@@H](C)C(=O)N[C@@H](C)C(=O)NC(C)(C)C(=O)N[C@@H](CCC(=O)O)C(=O)N[C@@H](Cc1ccccc1)C(=O)N[C@H](C(=O)N[C@@H](CCC(N)=O)C(=O)N[C@@H](Cc1c[nH]c2ccccc12)C(=O)N[C@@H](CC(C)C)C(=O)N[C@@H](CC(C)C)C(=O)N[C@@H](CCC(=O)O)C(=O)NCC(=O)NCC(=O)N1CCC[C@H]1C(=O)N[C@@H](CO)C(=O)N[C@@H](CO)C(=O)NCC(=O)N[C@@H](C)C(=O)N1CCC[C@H]1C(=O)N1CCC[C@H]1C(=O)N1CCC[C@H]1C(=O)N[C@@H](CO)C(N)=O)C(C)C` [Compound No. 45] (H-H[Aib]HGTFTSDYSILLEK([AEEA-AEEA-γGlu-C20 diacid])QAA[Aib]EFVQWLLEGGPSSGAPPPS-NH2; N-terminus assumed): 2.4 pM and 1.9 pM.
The matching figures for `CC(C)C[C@H](NC(=O)[C@H](CC(C)C)NC(=O)[C@H](Cc1c[nH]c2ccccc12)NC(=O)[C@H](CCC(N)=O)NC(=O)[C@@H](NC(=O)[C@H](Cc1ccccc1)NC(=O)[C@H](CCC(=O)O)NC(=O)C(C)(C)NC(=O)[C@H](C)NC(=O)[C@H](C)NC(=O)[C@H](CCC(N)=O)NC(=O)[C@H](CCCCNC(=O)[C@@H](N)CCCCNC(=O)[C@@H](N)CCCCNC(=O)CC[C@H](NC(=O)CCCCCCCCCCCCCCCCCCC(=O)O)C(=O)O)NC(=O)[C@H](CCC(=O)O)NC(=O)[C@H](CC(C)C)NC(=O)[C@H](Cc1ccc(O)cc1)NC(=O)[C@H](CCCCN)NC(=O)[C@H](CO)NC(=O)[C@H](Cc1ccc(O)cc1)NC(=O)[C@H](CC(=O)O)NC(=O)[C@H](CO)NC(=O)[C@@H](NC(=O)[C@H](Cc1ccccc1)NC(=O)[C@@H](NC(=O)CNC(=O)[C@H](Cc1c[nH]cn1)NC(=O)C(C)(C)NC(=O)[C@@H](N)Cc1c[nH]cn1)[C@@H](C)O)[C@@H](C)O)C(C)C)C(=O)N[C@@H](CCC(=O)O)C(=O)NCC(=O)NCC(=O)N1CCC[C@H]1C(=O)N[C@@H](CO)C(=O)N[C@@H](CO)C(=O)NCC(=O)N[C@@H](C)C(=O)N1CCC[C@H]1C(=O)N1CCC[C@H]1C(=O)N1CCC[C@H]1C(=O)N[C@@H](CO)C(N)=O` [Compound No. 36] (H-H[Aib]HGTFTSDYSKYLEK([εLys-εLys-γGlu-C20 diacid])QAA[Aib]EFVQWLLEGGPSSGAPPPS-NH2): 1.8 pM and 9.3 pM.
Turning to Y[Aib]QGTFTSDYSIKLDKQAA[Aib]EFVNWLLAGGPSSGAPPPS-NH2 (not fully specified (residue 13)) [Compound No. 62], the “hGcgR CRE Luc EC50 (pM)” value in data set [4] was determined as 891 pM. In addition, the “hGIPR CRE Luc EC50 (pM)” value in data set [5] worked out at 65 pM. The “hGLP-1R CRE Luc EC50 (pM)” value in data set [6] was determined as 36 pM.
Take Y[Aib]QGTFTSDYSIYKDKQAA[Aib]EFVNWLLAGGPSSGAPPPS-NH2 (not fully specified (residue 14)) [Compound No. 63]: the “hGcgR CRE Luc EC50 (pM)” value in data set [4] came out at 1110 pM. The “hGIPR CRE Luc EC50 (pM)” value in data set [5] came to 175 pM. The “hGLP-1R CRE Luc EC50 (pM)” value in data set [6] is 25 pM.

B1: Compound No. 60 (peptide)
peptide: Y[Aib]QGTFTSDYSIYLDKQAAKEFVNWLLAGGPSSGAPPPS-NH2
modifications: not fully specified (residue 20); printed as Y-Aib-QGTFTSDYSIYLDKQAA-K[2-[2-[2-[[2-[2-[2-[[(4S)-4-carboxy-4-(17-carboxyheptadecanoylamino)butanoyl]amino]ethoxy]ethoxy]acetyl]amino]ethoxy]ethoxy]acetyl]-EFVNWLLAGGPSSGAPPPS-NH2
Take B1: the “hGcgR CRE Luc EC50 (pM)” value in data set [4] turned out to be 182 pM. In addition, in data set [5], the “hGIPR CRE Luc EC50 (pM)” value is 416 pM. In data set [6], the “hGLP-1R CRE Luc EC50 (pM)” value worked out at 14.9 pM.
